Values after ≈ are worked out from the molar mass of the structure shown. Active and inactive are the calls of the source. No cut-off for these calls is given here.
Columns and labels:
Escherichia coli [1] = test: Biofilm disruption activity in Escherichia coli at MIC incubated for 24 hrs by crystal violet staining based assay; assay type: functional; conditions: dose 0.007 mM
Staphylococcus aureus [2] = test: Antibacterial activity against Staphylococcus aureus ATCC 25923 assessed as decrease in bacterial growth incubated for 18 hrs by broth microdilution method; assay type: functional
Escherichia coli [3] = test: Induction of bacterial resistance in Escherichia coli assessed as fold increase in MIC measured after 16 days by resistance development assay; assay type: functional; conditions: time 16.0 day
Cell membrane [4] = test: Induction of Inner membrane permeabilization in Escherichia coli assessed as increase in fluorescence intensity at MIC incubated for 6 hrs by PI staining based assay; assay type: subcellular
A549 = test: Cytotoxicity against human A549 cells assessed as cell viability upto 0.100 mM incubated for 24 hrs by MTT assay; assay type: functional, cell-based; conditions: dose mM <=0.100, time 24.0 hrs
[5] = Cytotoxicity against human FHC cells assessed as cell viability upto 0.100 mM incubated for 24 hrs by MTT assay; assay type: toxicity, cell-based; conditions: read-out: Activity
Cell membrane [6] = test: Induction of outer membrane permeabilization in Escherichia coli assessed as increase in fluorescence intensity at MIC incubated for 6 hrs by NPN-dye based fluorescence assay; assay type: subcellular
DNA = test: Competitive binding affinity to Escherichia coli DNA assessed as DNA intercalation by AO staining based assay; assay type: nucleic-acid assay
Escherichia coli [7] = test: Biofilm disruption activity in Escherichia coli assessed as reduction in exo-polysaccharide incubated for 24 hrs by crystal violet staining based assay; assay type: functional, organism-based
Escherichia coli [8] = test: Antibacterial activity against Escherichia coli assessed as decrease in bacterial growth incubated for 18 hrs by broth microdilution method; assay type: functional
Escherichia coli [9] = test: Bactericidal activity against Escherichia coli assessed as reduction in colony formation at 8 times MIC measured after upto 6 hrs by time kill assay; assay type: functional, organism-based; conditions: time hrs <=6
Escherichia coli [10] = test: Induction of bacterial resistance in Escherichia coli assessed as change in MIC measured after 16 days by resistance development assay; assay type: functional; conditions: time 16.0 day
Enterococcus faecalis = test: Antibacterial activity against Enterococcus faecalis assessed as decrease in bacterial growth incubated for 18 hrs by broth microdilution method; assay type: functional
Staphylococcus aureus [11] = test: Antibacterial activity against Staphylococcus aureus ATCC 29213 assessed as decrease in bacterial growth incubated for 18 hrs by broth microdilution method; assay type: functional
Pseudomonas aeruginosa [12] = test: Antibacterial activity against Pseudomonas aeruginosa ATCC 27853 assessed as decrease in bacterial growth incubated for 18 hrs by broth microdilution method; assay type: functional
[13] = Hemolytic activity against human RBC assessed as 50% hemolysis measured upto 64 times of MIC after 1 to 8 hr; assay type: toxicity, cell-based; conditions: erythrocyte, time 1-8 hrs
Escherichia coli [14] = test: Antibacterial activity against Escherichia coli ATCC 25922 assessed as decrease in bacterial growth incubated for 18 hrs by broth microdilution method; assay type: functional
Cell membrane [15] = test: Induction of cell membrane disruption in Escherichia coli assessed as increase in protein leakage upto 0.192 mM by Bradford assay; assay type: subcellular; conditions: dose mM <=0.192
Calf thymus DNA = test: Binding affinity to calf thymus DNA assessed as red shift in absorption spectra at pH 7.4 by UV-vis absorption spectroscopy; assay type: nucleic-acid assay; conditions: Bos taurus
Escherichia coli [16] = test: Anti-bioflim activity against Escherichia coli assessed as inhibition of bioflim formation at MIC incubated for 24 hrs followed by compound washout by crystal violet staining based assay; assay type: functional
Klebsiella pneumoniae = test: Antibacterial activity against Klebsiella pneumoniae assessed as decrease in bacterial growth incubated for 18 hrs by broth microdilution method; assay type: functional
Pseudomonas aeruginosa [17] = test: Antibacterial activity against Pseudomonas aeruginosa assessed as decrease in bacterial growth incubated for 18 hrs by broth microdilution method; assay type: functional
[18] = Aqueous solubility of the compound in saline; assay type: physicochemical
Escherichia coli [19] = test: Biofilm disruption activity in Escherichia coli assessed as mass loss of biofilm upto 0.096 mM incubated for 24 hrs by crystal violet staining based assay; assay type: functional, organism-based; conditions: dose mM <=0.096, time 24.0 hrs
Escherichia coli [20] = test: Induction of intracellular ROS production in Escherichia coli assessed as increase in ROS accumulation at 0.006 to 0.192 mM incubated for 6 hrs by DCFH-DA assay; assay type: functional, organism-based; conditions: dose 0.006-0.192 mM
Cell membrane [21] = test: Induction of membrane disruption in Escherichia coli at 2 times of MIC incubated for 6 hrs by DAPI staining and propidium iodide staining based fluorescence assay; assay type: subcellular
Staphylococcus aureus [22] = test: Antibacterial activity against methicillin-resistant Staphylococcus aureus N315 assessed as decrease in bacterial growth incubated for 18 hrs by broth microdilution method; assay type: functional
Staphylococcus aureus [23] = test: Antibacterial activity against Staphylococcus aureus assessed as decrease in bacterial growth incubated for 18 hrs by broth microdilution method; assay type: functional
Cell membrane [24] = test: Induction of membrane depolarization in Escherichia coli at 0.006 to 0.096 mM incubated for 6 hrs by DiSC35 dye-based fluorescence assay; assay type: subcellular; conditions: dose 0.006-0.096 mM
Escherichia coli [25] = test: Antibacterial activity against Escherichia coli assessed as reduction in metabolic activity in presence of resazurin measured after 6 hrs by alamar blue assay; assay type: functional, organism-based
Acinetobacter baumannii = test: Antibacterial activity against Acinetobacter baumannii assessed as decrease in bacterial growth incubated for 18 hrs by broth microdilution method; assay type: functional
[26] = Cytotoxicity against human PNT1A cells assessed as cell viability upto 0.100 mM incubated for 24 hrs by MTT assay; assay type: toxicity, cell-based; conditions: read-out: Activity
Cell membrane [27] = test: Induction of cell membrane disruption in Escherichia coli assessed as increase in protein leakage upto 0.224 mM by Bradford assay; assay type: subcellular; conditions: dose mM <=0.224
Escherichia coli [28] = test: Biofilm disruption activity in Escherichia coli assessed as mass loss of biofilm upto 0.112 mM incubated for 24 hrs by crystal violet staining based assay; assay type: functional, organism-based; conditions: dose mM <=0.112, time 24.0 hrs
Escherichia coli [29] = test: Induction of intracellular ROS production in Escherichia coli assessed as increase in ROS accumulation at 0.007 to 0.224 mM incubated for 6 hrs by DCFH-DA assay; assay type: functional, organism-based; conditions: dose 0.007-0.224 mM
Cell membrane [30] = test: Induction of membrane depolarization in Escherichia coli at 0.007 to 0.112 mM incubated for 6 hrs by DiSC35 dye-based fluorescence assay; assay type: subcellular; conditions: dose 0.007-0.112 mM

## COc1ccc2cc3[n+](cc2c1OCC(O)CSc1nc2ccccc2s1)CCc1cc2c(cc1-3)OCO2.[Br-] (stereo not drawn)
Escherichia coli [1]
  Activity: 15%
Staphylococcus aureus [2]
  MIC: 13 µM
Escherichia coli [3]
  Activity: inactive
Cell membrane [4]
  Activity: Active
A549
  Activity: inactive
[5]
  viability at 24 h: 70%
Cell membrane [6]
  Activity: Active
DNA
  Activity: Active
Escherichia coli [7]
  Activity: Active
Escherichia coli [8]
  MIC: 6 µM
Escherichia coli [9]
  Activity: Active
Escherichia coli [10]
  Activity: inactive
Enterococcus faecalis
  MIC: 51 µM
Staphylococcus aureus [11]
  MIC: 51 µM
Pseudomonas aeruginosa [12]
  MIC: 51 µM
[13]
  Activity: Non-Toxic
Escherichia coli [14]
  MIC: 51 µM
Cell membrane [15]
  Activity: Active
Calf thymus DNA
  Activity: Active
Escherichia coli [16]
  inhibition (INH): 21.87%
Klebsiella pneumoniae
  MIC: 13 µM
Pseudomonas aeruginosa [17]
  MIC: 102 µM
[18]
  solubility: 770 µM
Escherichia coli [19]
  Activity: Dose-Dependent Effect
Escherichia coli [20]
  Activity: Active
Cell membrane [21]
  Activity: Active
Staphylococcus aureus [22]
  MIC: 6 µM
Staphylococcus aureus [23]
  MIC: 51 µM
Cell membrane [24]
  Activity: Active
Escherichia coli [25]
  Activity: Active
Acinetobacter baumannii
  MIC: 26 µM
[26]
  viability at 24 h: 70%
Cell membrane [27]
  Activity: Active

## COc1ccc2cc3[n+](cc2c1OCC(O)Cn1c([N+](=O)[O-])cnc1C)CCc1cc2c(cc1-3)OCO2.[Br-] (stereo not drawn)
Escherichia coli [28]
  Activity: Dose-Dependent Effect
Escherichia coli [1]
  Activity: 40%
Staphylococcus aureus [2]
  MIC: 55 µM
Escherichia coli [3]
  Activity: inactive
Cell membrane [4]
  Activity: Active
A549
  Activity: inactive
[5]
  viability at 24 h: 70%
Cell membrane [6]
  Activity: Active
Escherichia coli [29]
  Activity: Active
DNA
  Activity: Active
Escherichia coli [7]
  Activity: Active
Escherichia coli [8]
  MIC: 7 µM
Escherichia coli [9]
  Activity: Active
Escherichia coli [10]
  Activity: inactive
Enterococcus faecalis
  MIC: 14 µM
Staphylococcus aureus [11]
  MIC: 55 µM
Pseudomonas aeruginosa [12]
  MIC: 55 µM
[13]
  Activity: Non-Toxic
Escherichia coli [14]
  MIC: 55 µM
Cell membrane [15]
  Activity: Active
Calf thymus DNA
  Activity: Active
Escherichia coli [16]
  inhibition (INH): 28.25%
Klebsiella pneumoniae
  MIC: 27 µM
Pseudomonas aeruginosa [17]
  MIC: 55 µM
[18]
  solubility: 908 µM
Cell membrane [21]
  Activity: Active
Staphylococcus aureus [22]
  MIC: 14 µM
Cell membrane [30]
  Activity: Active
Staphylococcus aureus [23]
  MIC: 109 µM
Escherichia coli [25]
  Activity: Active
Acinetobacter baumannii
  MIC: 14 µM
[26]
  viability at 24 h: 70%
Cell membrane [27]
  Activity: Active

## CCn1cc(C(=O)O)c(=O)c2cc(F)c(N3CCNCC3)cc21 [NORFLOXACIN]
Staphylococcus aureus [2]
  MIC: 13 µM (≈ 4.15 µg/mL)
Escherichia coli [3]
  fold change (FC): 64
Escherichia coli [8]
  MIC: 13 µM (≈ 4.15 µg/mL)
Enterococcus faecalis
  MIC: 6 µM (≈ 1.92 µg/mL)
Staphylococcus aureus [11]
  MIC: 100 µM (≈ 31.9 µg/mL)
Pseudomonas aeruginosa [12]
  MIC: 200 µM (≈ 63.9 µg/mL)
Escherichia coli [14]
  MIC: 13 µM (≈ 4.15 µg/mL)
Klebsiella pneumoniae
  MIC: 6 µM (≈ 1.92 µg/mL)
Pseudomonas aeruginosa [17]
  MIC: 25 µM (≈ 7.98 µg/mL)
Staphylococcus aureus [22]
  MIC: 25 µM (≈ 7.98 µg/mL)
Staphylococcus aureus [23]
  MIC: 2 µM (≈ 0.639 µg/mL)
Acinetobacter baumannii
  MIC: 6 µM (≈ 1.92 µg/mL)

## CCN(CCO)CC(O)COc1c(OC)ccc2cc3[n+](cc12)CCc1cc2c(cc1-3)OCO2.[Br-] (stereo not drawn)
Staphylococcus aureus [2]
  MIC: 468 µM
Escherichia coli [8]
  MIC: 234 µM
Enterococcus faecalis
  MIC: 468 µM
Staphylococcus aureus [11]
  MIC: 234 µM
Pseudomonas aeruginosa [12]
  MIC: 468 µM
Escherichia coli [14]
  MIC: 234 µM
Klebsiella pneumoniae
  MIC: 468 µM
Pseudomonas aeruginosa [17]
  MIC: 468 µM
[18]
  solubility: 3720 µM
Staphylococcus aureus [22]
  MIC: 468 µM
Staphylococcus aureus [23]
  MIC: 468 µM
Acinetobacter baumannii
  MIC: 468 µM

## COc1ccc2cc3[n+](cc2c1OCC(O)Cn1cnc2cc([N+](=O)[O-])ccc21)CCc1cc2c(cc1-3)OCO2.[Br-] (stereo not drawn)
Staphylococcus aureus [2]
  MIC: 26 µM
Escherichia coli [8]
  MIC: 51 µM
Enterococcus faecalis
  MIC: 51 µM
Staphylococcus aureus [11]
  MIC: 51 µM
Pseudomonas aeruginosa [12]
  MIC: 26 µM
Escherichia coli [14]
  MIC: 103 µM
Klebsiella pneumoniae
  MIC: 103 µM
Pseudomonas aeruginosa [17]
  MIC: 103 µM
[18]
  solubility: 895 µM
Staphylococcus aureus [22]
  MIC: 103 µM
Staphylococcus aureus [23]
  MIC: 103 µM
Acinetobacter baumannii
  MIC: 103 µM

## COc1ccc2cc3[n+](cc2c1OCC(O)Cn1ccnc1-c1ccccc1)CCc1cc2c(cc1-3)OCO2.[Br-] (stereo not drawn)
Staphylococcus aureus [2]
  MIC: 53 µM
Escherichia coli [8]
  MIC: 27 µM
Enterococcus faecalis
  MIC: 106 µM
Staphylococcus aureus [11]
  MIC: 53 µM
Pseudomonas aeruginosa [12]
  MIC: 106 µM
Escherichia coli [14]
  MIC: 106 µM
Klebsiella pneumoniae
  MIC: 53 µM
Pseudomonas aeruginosa [17]
  MIC: 106 µM
[18]
  solubility: 701 µM
Staphylococcus aureus [22]
  MIC: 7 µM
Staphylococcus aureus [23]
  MIC: 106 µM
Acinetobacter baumannii
  MIC: 27 µM

## COc1ccc2cc3[n+](cc2c1OCC(O)CN1CCNCC1)CCc1cc2c(cc1-3)OCO2.[Br-] (stereo not drawn)
Staphylococcus aureus [2]
  MIC: 235 µM
Escherichia coli [8]
  MIC: 118 µM
Enterococcus faecalis
  MIC: 118 µM
Staphylococcus aureus [11]
  MIC: 118 µM
Pseudomonas aeruginosa [12]
  MIC: 118 µM
Escherichia coli [14]
  MIC: 235 µM
Klebsiella pneumoniae
  MIC: 15 µM
Pseudomonas aeruginosa [17]
  MIC: 15 µM
[18]
  solubility: 3810 µM
Staphylococcus aureus [22]
  MIC: 59 µM
Staphylococcus aureus [23]
  MIC: 118 µM
Acinetobacter baumannii
  MIC: 118 µM

## COc1ccc2cc3[n+](cc2c1OCC(O)CSc1nnnn1C)CCc1cc2c(cc1-3)OCO2.[Br-] (stereo not drawn)
Staphylococcus aureus [2]
  MIC: 56 µM
Escherichia coli [8]
  MIC: 28 µM
Enterococcus faecalis
  MIC: 56 µM
Staphylococcus aureus [11]
  MIC: 111 µM
Pseudomonas aeruginosa [12]
  MIC: 111 µM
Escherichia coli [14]
  MIC: 111 µM
Klebsiella pneumoniae
  MIC: 111 µM
Pseudomonas aeruginosa [17]
  MIC: 111 µM
[18]
  solubility: 992 µM
Staphylococcus aureus [22]
  MIC: 56 µM
Staphylococcus aureus [23]
  MIC: 111 µM
Acinetobacter baumannii
  MIC: 56 µM
